{
  "source": "paper PMC8326665",
  "about": "“Branebrutinib (BMS-986195), a Bruton’s Tyrosine Kinase Inhibitor, Resensitizes P-Glycoprotein-Overexpressing Multidrug-Resistant Cancer Cells to Chemotherapeutic Agents” (Frontiers in Cell and Developmental Biology, 2021)",
  "molecular_target": "T1, P-glycoprotein (P-gp/ABCB1) (Homo sapiens, UniProt P08183)",
  "T1 construct": "full-length human P-gp; MDR1 baculovirus in High-Five insect cell total membranes (ATPase); transfected MDR19-HEK293 cells (calcein efflux)",
  "T1 sequence (P08183 whole entry)": "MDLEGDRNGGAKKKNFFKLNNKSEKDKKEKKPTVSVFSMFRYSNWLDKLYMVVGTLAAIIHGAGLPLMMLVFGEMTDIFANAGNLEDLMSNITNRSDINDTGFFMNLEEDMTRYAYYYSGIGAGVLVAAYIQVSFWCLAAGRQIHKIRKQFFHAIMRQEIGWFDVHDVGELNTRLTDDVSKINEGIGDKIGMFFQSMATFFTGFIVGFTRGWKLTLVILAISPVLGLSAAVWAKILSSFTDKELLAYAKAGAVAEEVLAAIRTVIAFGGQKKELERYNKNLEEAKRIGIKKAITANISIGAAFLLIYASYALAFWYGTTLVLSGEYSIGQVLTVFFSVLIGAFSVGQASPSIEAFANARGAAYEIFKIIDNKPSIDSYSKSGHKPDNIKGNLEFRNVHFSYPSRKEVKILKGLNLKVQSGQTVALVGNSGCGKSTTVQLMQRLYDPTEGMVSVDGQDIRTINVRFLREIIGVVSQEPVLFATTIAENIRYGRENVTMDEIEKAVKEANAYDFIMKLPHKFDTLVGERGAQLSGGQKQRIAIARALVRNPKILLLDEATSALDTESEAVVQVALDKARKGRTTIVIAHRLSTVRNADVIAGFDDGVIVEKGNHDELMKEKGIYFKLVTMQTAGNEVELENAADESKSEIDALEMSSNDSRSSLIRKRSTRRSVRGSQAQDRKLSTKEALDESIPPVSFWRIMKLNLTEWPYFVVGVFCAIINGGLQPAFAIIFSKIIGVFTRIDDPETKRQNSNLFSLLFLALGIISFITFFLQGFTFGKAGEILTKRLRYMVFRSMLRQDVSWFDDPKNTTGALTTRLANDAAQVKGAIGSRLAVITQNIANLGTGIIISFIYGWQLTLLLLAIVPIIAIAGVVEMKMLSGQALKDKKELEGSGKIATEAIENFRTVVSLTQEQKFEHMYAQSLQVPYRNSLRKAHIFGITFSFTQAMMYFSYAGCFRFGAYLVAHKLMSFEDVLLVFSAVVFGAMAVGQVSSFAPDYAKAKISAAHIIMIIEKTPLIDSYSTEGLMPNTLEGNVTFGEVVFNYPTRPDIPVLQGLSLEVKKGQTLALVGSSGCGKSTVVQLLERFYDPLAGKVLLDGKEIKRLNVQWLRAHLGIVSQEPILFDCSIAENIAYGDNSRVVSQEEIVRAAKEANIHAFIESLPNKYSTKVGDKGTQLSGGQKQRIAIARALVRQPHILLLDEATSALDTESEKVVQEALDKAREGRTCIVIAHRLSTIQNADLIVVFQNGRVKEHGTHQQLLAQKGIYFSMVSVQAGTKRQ",
  "experiment": "vanadate-sensitive ATPase activity, endpoint inorganic phosphate assay, insect cell membranes",
  "assay_type": "biochemical",
  "description": "vanadate-sensitive ATPase activity, endpoint inorganic phosphate assay, insect cell membranes on P-glycoprotein (P-gp/ABCB1) | half maximal effective concentration (EC50) value",
  "data": [
    {"compound": "CC#CC(=O)N[C@H]1CCCN(c2c(F)cc(C(N)=O)c3[nH]c(C)c(C)c23)C1", "note": "[branebrutinib]", "values": [
      {"measurement": "EC50", "value": "~4.5", "unit": "µM"}
    ]}
  ]
}
